Experimental data: ChEMBL document CHEMBL1201862, “PubChem BioAssay data set” (2004)
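Cells were grown in 96-well plates and exposed to each compound for 48 hours at five concentrations; endpoints were interpolated linearly between bracketing concentrations, or set to the highest concentration if not reached. The concentration for 50% growth inhibition is given as GI50.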 Active and inactive are the calls of the source. No stated cut-off is given here; in the data, active = GI50 up to about 1.1 µM and inactive = higher.

How the values were obtained:
Test in all cases: growth of human tumour cells (NCI), 48 h
786-0 = tested on: 786-0
A549 = tested on: A549
ACHN = tested on: ACHN
BT-549 = tested on: BT-549
CAKI-1 = tested on: CAKI-1
CCRF-CEM = tested on: CCRF-CEM
COLO 205 = tested on: COLO 205
DU-145 = tested on: DU-145
EKVX = tested on: EKVX
HCC 2998 = tested on: HCC 2998
HCT-116 = tested on: HCT-116
HCT-15 = tested on: HCT-15
HL-60 = tested on: HL-60
HOP-62 = tested on: HOP-62
HOP-92 = tested on: HOP-92
HT-29 = tested on: HT-29
Hs-578T = tested on: Hs-578T
IGROV-1 = tested on: IGROV-1
K562 = tested on: K562
KM12 = tested on: KM12
LOX IMVI = tested on: LOX IMVI
M14 = tested on: M14
MCF7 = tested on: MCF7
MDA-MB-231 = tested on: MDA-MB-231
MDA-MB-435 = tested on: MDA-MB-435
MOLT-4 = tested on: MOLT-4
Malme-3M = tested on: Malme-3M
NCI-H226 = tested on: NCI-H226
NCI-H23 = tested on: NCI-H23
NCI-H460 = tested on: NCI-H460
NCI/ADR-RES = tested on: NCI/ADR-RES
OVCAR-3 = tested on: OVCAR-3
OVCAR-4 = tested on: OVCAR-4
OVCAR-5 = tested on: OVCAR-5
OVCAR-8 = tested on: OVCAR-8
PC-3 = tested on: PC-3
RPMI-8226 = tested on: RPMI-8226
RXF 393 = tested on: RXF 393
SF-268 = tested on: SF-268
SF-295 = tested on: SF-295
SF-539 = tested on: SF-539
SK-MEL-28 = tested on: SK-MEL-28
SK-MEL-2 = tested on: SK-MEL-2
SK-MEL-5 = tested on: SK-MEL-5
SK-OV-3 = tested on: SK-OV-3
SN12C = tested on: SN12C
SNB-19 = tested on: SNB-19
SNB-75 = tested on: SNB-75
SW-620 = tested on: SW-620
T47D = tested on: T47D
TK-10 = tested on: TK-10
U-251 = tested on: U-251
UACC-257 = tested on: UACC-257
UACC-62 = tested on: UACC-62
UO-31 = tested on: UO-31
A498 = tested on: A498
NCI-H522 = tested on: NCI-H522
SR = tested on: SR

In the case of `CCN1C(=O)C(=Cc2ccc(-c3ccccc3)cc2)C(=O)N(CC)C1=S`, the GI50 (786-0) is reported as > 100 µM (inactive), the GI50 (A549) is reported as > 100 µM (inactive) and the GI50 (ACHN) is reported as > 100 µM (inactive). For the same molecule, the GI50 (BT-549) was > 100 µM (inactive), the GI50 (CAKI-1) was > 100 µM (inactive) and the GI50 (CCRF-CEM) was 48.9 µM (inactive). For the same molecule, the GI50 (COLO 205) was > 100 µM (inactive), the GI50 (DU-145) was > 100 µM (inactive) and the GI50 (EKVX) was > 100 µM (inactive). The GI50 (HCC 2998) was > 100 µM (inactive), the GI50 (HCT-116) was 97.3 µM (inactive) and the GI50 (HCT-15) was > 100 µM. For the same molecule, the GI50 (HL-60) was 35.5 µM (inactive), the GI50 (HOP-62) was > 100 µM (inactive) and the GI50 (HOP-92) was > 100 µM (inactive). The GI50 (HT-29) was > 100 µM (inactive), the GI50 (Hs-578T) was > 100 µM (inactive) and the GI50 (IGROV-1) was > 100 µM (inactive). For the same molecule, the GI50 (K562) was 38.5 µM (inactive), the GI50 (KM12) was > 100 µM (inactive) and the GI50 (LOX IMVI) was > 100 µM (inactive). The GI50 (M14) was > 100 µM (inactive), the GI50 (MCF7) was > 100 µM (inactive) and the GI50 (MDA-MB-231) was > 100 µM (inactive). The GI50 (MDA-MB-435) was > 100 µM (inactive), the GI50 (MOLT-4) was 30.3 µM (inactive) and the GI50 (Malme-3M) was > 100 µM (inactive). The GI50 (NCI-H226) was > 100 µM (inactive), the GI50 (NCI-H23) was > 100 µM (inactive) and the GI50 (NCI-H460) was > 100 µM (inactive). The GI50 (NCI/ADR-RES) was 34.7 µM (inactive), the GI50 (OVCAR-3) was > 100 µM (inactive) and the GI50 (OVCAR-4) was > 100 µM (inactive). The GI50 (OVCAR-5) was > 100 µM (inactive), the GI50 (OVCAR-8) was > 100 µM (inactive) and the GI50 (PC-3) was > 100 µM (inactive). For the same molecule, the GI50 (RPMI-8226) was > 100 µM (inactive), the GI50 (RXF 393) was > 100 µM (inactive) and the GI50 (SF-268) was > 100 µM (inactive). For the same molecule, the GI50 (SF-295) was > 100 µM (inactive), the GI50 (SF-539) was > 100 µM (inactive) and the GI50 (SK-MEL-28) was > 100 µM (inactive). For the same molecule, the GI50 (SK-MEL-2) was > 100 µM (inactive), the GI50 (SK-MEL-5) was > 100 µM (inactive) and the GI50 (SK-OV-3) was > 100 µM (inactive). For the same molecule, the GI50 (SN12C) was > 100 µM (inactive), the GI50 (SNB-19) was > 100 µM (inactive) and the GI50 (SNB-75) was 71.8 µM (inactive). For the same molecule, the GI50 (SW-620) was > 100 µM (inactive), the GI50 (T47D) was > 100 µM (inactive) and the GI50 (TK-10) was > 100 µM (inactive). The GI50 (U-251) was 75.2 µM (inactive), the GI50 (UACC-257) was > 100 µM (inactive) and the GI50 (UACC-62) was > 100 µM (inactive). For the same molecule, the GI50 (UO-31) was 79.4 µM (inactive).
With `CC(O[Si](C)(C)C(C)(C)C)[C@H](NC(=O)OCC(Cl)(Cl)Cl)C(=O)O` (stereo partly drawn) the GI50 (786-0) was > 100 µM (inactive), the GI50 (A498) was > 100 µM (inactive) and the GI50 (A549) was > 100 µM (inactive). For the same molecule, the GI50 (ACHN) was 55.1 µM (inactive), the GI50 (BT-549) was > 100 µM (inactive) and the GI50 (CCRF-CEM) was > 100 µM (inactive). For the same molecule, the GI50 (COLO 205) was > 100 µM (inactive), the GI50 (DU-145) was > 100 µM (inactive) and the GI50 (EKVX) was > 100 µM (inactive). For the same molecule, the GI50 (HCC 2998) was > 100 µM (inactive), the GI50 (HCT-116) was > 100 µM (inactive) and the GI50 (HCT-15) was > 100 µM. For the same molecule, the GI50 (HL-60) was > 100 µM (inactive), the GI50 (HOP-62) was > 100 µM (inactive) and the GI50 (HT-29) was > 100 µM (inactive). For the same molecule, the GI50 (Hs-578T) was > 100 µM (inactive), the GI50 (IGROV-1) was > 100 µM (inactive) and the GI50 (K562) was > 100 µM (inactive). For the same molecule, the GI50 (KM12) was 56 µM (inactive), the GI50 (LOX IMVI) was > 10 µM (inactive) and the GI50 (MCF7) was > 100 µM (inactive). The GI50 (MDA-MB-231) was > 100 µM (inactive), the GI50 (MDA-MB-435) was > 100 µM (inactive) and the GI50 (MOLT-4) was > 100 µM (inactive). The GI50 (Malme-3M) was > 100 µM (inactive), the GI50 (NCI-H226) was > 100 µM (inactive) and the GI50 (NCI-H23) was 95.3 µM (inactive). For the same molecule, the GI50 (NCI-H460) was > 100 µM (inactive), the GI50 (NCI-H522) was 78 µM (inactive) and the GI50 (NCI/ADR-RES) was > 100 µM (inactive). The GI50 (OVCAR-3) was 79.6 µM (inactive), the GI50 (OVCAR-4) was > 100 µM (inactive) and the GI50 (OVCAR-5) was > 100 µM (inactive). The GI50 (OVCAR-8) was > 100 µM (inactive), the GI50 (PC-3) was > 100 µM (inactive) and the GI50 (RPMI-8226) was 84.7 µM (inactive). For the same molecule, the GI50 (RXF 393) was > 100 µM (inactive), the GI50 (SF-268) was > 100 µM (inactive) and the GI50 (SF-295) was 51.2 µM (inactive). The GI50 (SF-539) was > 100 µM (inactive), the GI50 (SK-MEL-28) was > 100 µM (inactive) and the GI50 (SK-MEL-5) was > 100 µM (inactive). The GI50 (SK-OV-3) was > 100 µM (inactive), the GI50 (SN12C) was > 100 µM (inactive) and the GI50 (SNB-19) was > 100 µM (inactive). The GI50 (SR) was > 100 µM (inactive), the GI50 (SW-620) was > 100 µM (inactive) and the GI50 (T47D) was > 100 µM (inactive). The GI50 (TK-10) was > 100 µM (inactive), the GI50 (U-251) was > 100 µM (inactive) and the GI50 (UACC-257) was > 100 µM (inactive). The GI50 (UACC-62) was 53.5 µM (inactive) and the GI50 (UO-31) was > 100 µM (inactive).
